Data: DBAASP
Values after ≈ are worked out from the molar mass of the structure shown.

Legend:
Test in all cases: ≥ marks a high value that may be exact or a test limit, other limits are often not marked, values filed in µg/mL are converted to µM
Enterococcus faecalis VR = system: Enterococcus faecalis VR
[1] = system: Escherichia coli KCTC 1682
Staphylococcus aureus MR = system: Staphylococcus aureus MR
Enterococcus faecalis = system: Enterococcus faecalis
Enterococcus faecium VR = system: Enterococcus faecium VR
Enterococcus faecium = system: Enterococcus faecium
[2] = system: Bacillus subtilis KCTC 3068
[3] = system: Staphylococcus epidermidis KCTC 1917
[4] = system: Salmonella typhimurium KCTC 1926
[5] = system: Pseudomonas aeruginosa KCTC 1637
[6] = system: Staphylococcus aureus KCTC 1621
[7] = system: Staphylococcus aureus ATCC 6538P
Staphylococcus aureus = system: Staphylococcus aureus
Escherichia coli JM109 = system: Escherichia coli JM109
Staphylococcus aureus 15 = system: Staphylococcus aureus 15
[8] = system: Pseudomonas aeruginosa NCTC 13437
[9] = system: Acinetobacter baumannii AYE
[10] = system: Xanthomonas axonopodis pv. phaseoli
[11] = system: Enterococcus faecalis NCTC 12204
[12] = system: Acinetobacter baumannii ATCC 17987
[13] = system: Staphylococcus aureus NCTC 9144
[14] = system: Klebsiella pneumoniae NCTC 13368
[15] = system: Escherichia coli NCTC 12923
[16] = system: Pseudomonas aeruginosa PAO1
[17] = system: Pseudomonas syringae pv. tomato
[18] = system: Enterococcus faecalis NCTC 775
[19] = system: Enterococcus faecalis NCTC 12201
Klebsiella pneumoniae M6 = system: Klebsiella pneumoniae M6
[20] = system: Escherichia coli K-12 594
[21] = system: Staphylococcus aureus SR1550

SMILES | MIC (Enterococcus faecalis VR) | MIC [1] | MIC (Staphylococcus aureus MR) | MIC (Enterococcus faecalis) | MIC (Enterococcus faecium VR) | MIC (Enterococcus faecium) | MIC [2] | MIC [3] | MIC [4] | MIC [5] | MIC [6] | MIC [7] | MIC [20] | MIC [21] | other results
CC[C@H](C)[C@H](NC(=O)[C@H](CCC(=O)O)NC(=O)[C@H](CC(N)=O)NC(=O)[C@H](CCCCN)NC(=O)[C@H](CC(C)C)NC(=O)[C@H](Cc1ccc(O)cc1)NC(=O)[C@H](CCC(N)=O)NC(=O)[C@H](CCCN=C(N)N)NC(=O)[C@@H](NC(=O)[C@@H](NC(=O)[C@H](CCC(=O)O)NC(=O)[C@H](CCCCN)NC(=O)CNC(=O)[C@H](C)N)[C@@H](C)O)[C@@H](C)CC)C(=O)N[C@@H](CCCCN)C(=O)N[C@@H](CCCCN)C(=O)N[C@@H](CCCCN)C(=O)NCC(=O)N[C@@H](CCCN=C(N)N)C(=O)N[C@@H](CCCCN)C(=O)N[C@@H](C)C(=O)N[C@H](C(=O)N[C@H](C(=O)N[C@@H](C)C(=O)N[C@@H](Cc1c[nH]c2ccccc12)C(=O)O)[C@@H](C)CC)C(C)C [AGKETIRQYLKNEIKKKGRKAVIAW] |  |  |  |  |  |  |  |  |  |  |  |  |  |  | MIC (Staphylococcus aureus 15): ≥ 43.7 µM; MIC [8]: ≥ 43.7 µM; MIC [9]: 10.9 µM (≈ 32 µg/mL); MIC [10]: 1.37 µM (≈ 4 µg/mL); MIC [11]: ≥ 43.7 µM; MIC [12]: 21.8 µM (≈ 64 µg/mL); MIC [13]: ≥ 43.7 µM; MIC [14]: ≥ 43.7 µM; MIC [15]: 21.8 µM (≈ 64 µg/mL); MIC [16]: > 43.7 µM; MIC [17]: 5.46 µM (≈ 16 µg/mL); MIC [18]: ≥ 43.7 µM; MIC [19]: ≥ 43.7 µM; MIC (Klebsiella pneumoniae M6): ≥ 43.7 µM
CC(C)C[C@H](NC(=O)[C@H](CC(C)C)NC(=O)[C@H](CC(C)C)NC(=O)[C@H](CC(C)C)NC(=O)[C@H](CC(C)C)NC(=O)[C@H](CCCCN)NC(=O)[C@@H](N)CCCCN)C(=O)N[C@@H](CCCCN)C(=O)N[C@@H](CCCCN)C(N)=O [KKLLLLLKK] |  |  |  |  |  |  |  |  |  |  |  | 14.6 µM (≈ 16 µg/mL) | 31.9 µM (≈ 35 µg/mL) | 31.9 µM (≈ 35 µg/mL) | 
CC(C)C[C@H](NC(=O)[C@H](CCCN=C(N)N)NC(=O)[C@H](CC(C)C)NC(=O)[C@H](CC(C)C)NC(=O)[C@H](CC(C)C)NC(=O)[C@H](CC(C)C)NC(=O)[C@H](CC(C)C)NC(=O)[C@H](CCCCN)NC(=O)[C@H](CC(C)C)NC(=O)[C@@H](N)CCCN=C(N)N)C(=O)N[C@@H](CCCCN)C(N)=O [RLKLLLLLRLK] |  |  |  |  |  |  |  |  |  |  |  | 0.725 µM (≈ 0.999 µg/mL) | 14.5 µM (≈ 20 µg/mL) | 21.8 µM (≈ 30 µg/mL) | 
CC[C@H](C)[C@H](NC(=O)[C@H](CCC(=O)O)NC(=O)[C@H](CC(N)=O)NC(=O)[C@H](CCCCN)NC(=O)[C@H](CC(C)C)NC(=O)[C@H](CCCCN)NC(=O)[C@H](CCCCN)NC(=O)[C@H](CCCN=C(N)N)NC(=O)[C@@H](NC(=O)[C@H](CCCCN)NC(=O)[C@H](CCC(=O)O)NC(=O)[C@H](CCCCN)NC(=O)CNC(=O)[C@H](C)N)[C@@H](C)CC)C(=O)N[C@@H](CCCCN)C(=O)N[C@@H](CCCCN)C(=O)N[C@@H](CCCCN)C(=O)NCC(=O)N[C@@H](CCCN=C(N)N)C(=O)N[C@@H](CCCCN)C(=O)N[C@@H](C)C(=O)N[C@H](C(=O)N[C@H](C(=O)N[C@@H](C)C(=O)N[C@@H](Cc1c[nH]c2ccccc12)C(=O)O)[C@@H](C)CC)C(C)C [AGKEKIRKKLKNEIKKKGRKAVIAW] |  |  |  |  |  |  |  |  |  |  |  |  |  |  | MIC (Staphylococcus aureus 15): ≥ 43.8 µM; MIC [8]: ≥ 43.8 µM; MIC [9]: 21.9 µM (≈ 64 µg/mL); MIC [10]: 0.342 µM (≈ 1 µg/mL); MIC [11]: ≥ 43.8 µM; MIC [12]: 21.9 µM (≈ 64 µg/mL); MIC [13]: ≥ 43.8 µM; MIC [14]: ≥ 43.8 µM; MIC [15]: 11 µM (≈ 32 µg/mL); MIC [16]: > 43.8 µM; MIC [17]: 1.37 µM (≈ 4 µg/mL); MIC [18]: ≥ 43.8 µM; MIC [19]: ≥ 43.8 µM; MIC (Klebsiella pneumoniae M6): ≥ 43.8 µM

The next lines start with results.

MIC (Enterococcus faecalis VR) | MIC [1] | MIC (Staphylococcus aureus MR) | MIC (Enterococcus faecalis) | MIC (Enterococcus faecium VR) | MIC (Enterococcus faecium) | MIC [2] | MIC [3] | MIC [4] | MIC [5] | MIC [6] | MIC [7] | MIC [20] | MIC [21] | SMILES | other results
30 µM (≈ 36 µg/mL) | 30 µM (≈ 36 µg/mL) | 15 µM (≈ 18 µg/mL) | 30 µM (≈ 36 µg/mL) | 30 µM (≈ 36 µg/mL) | 30 µM (≈ 36 µg/mL) | 15 µM (≈ 18 µg/mL) | 7.5 µM (≈ 9 µg/mL) | 7.5 µM (≈ 9 µg/mL) | 7.5 µM (≈ 9 µg/mL) | 15 µM (≈ 18 µg/mL) |  |  |  | CC(C)C[C@H](NC(=O)[C@H](CS)NC(=O)[C@H](CCCCN)NC(=O)[C@H](C)NC(=O)[C@H](C)N)C(=O)N[C@H](C(=O)N[C@@H](CCC(N)=O)C(=O)N[C@@H](CCCN=C(N)N)C(=O)N[C@@H](CCCN=C(N)N)C(=O)N[C@@H](CCCN=C(N)N)C(N)=O)C(C)C [AAKCLVQRRR] | 
30 µM | 15 µM | 30 µM | 15 µM | 15 µM | 15 µM | 7.5 µM | 15 µM | 15 µM | 15 µM | 7.5 µM | 4.68 µM |  |  | CC[C@H](C)[C@H](NC(=O)[C@H](C)NC(=O)[C@H](CC(C)C)NC(=O)[C@H](CS)NC(=O)[C@H](Cc1cnc[nH]1)NC(=O)[C@H](C)NC(=O)[C@H](C)N)C(=O)NCC(=O)N[C@@H](CCCN=C(N)N)C(=O)N[C@@H](CCCN=C(N)N)C(N)=O [AAHCLAIGRR] | MIC (Staphylococcus aureus): > 60 µM; MIC (Escherichia coli JM109): 15 µM
30 µM | 7.5 µM | 7.5 µM | 15 µM | 3.8 µM | 7.5 µM | 7.5 µM | 7.5 µM | 7.5 µM | 7.5 µM | 7.5 µM |  |  |  | CC[C@H](C)[C@H](NC(=O)[C@H](C)NC(=O)[C@H](CC(C)C)NC(=O)[C@H](CS)NC(=O)[C@H](Cc1cnc[nH]1)NC(=O)[C@H](C)NC(=O)[C@H](C)N)C(=O)NCC(=O)N[C@@H](CCCN=C(N)N)C(=O)N[C@@H](CCCCN)C(N)=O [AAHCLAIGRK] | 
 |  |  |  |  |  |  |  |  |  |  | 1.74 µM (≈ 2 µg/mL) | 26 µM (≈ 30 µg/mL) | 30.4 µM (≈ 35 µg/mL) | CC(C)C[C@H](NC(=O)[C@H](CCCN=C(N)N)NC(=O)[C@H](CC(C)C)NC(=O)[C@H](CC(C)C)NC(=O)[C@H](CC(C)C)NC(=O)[C@H](CCCCN)NC(=O)[C@H](CC(C)C)NC(=O)[C@@H](N)CCCN=C(N)N)C(=O)N[C@@H](CCCCN)C(N)=O [RLKLLLRLK] | 
